Measured values published in ChEMBL document CHEMBL4414590, “Discovery of SIAIS178 as an Effective BCR-ABL Degrader by Recruiting Von Hippel-Lindau (VHL) E3 Ubiquitin Ligase” (J Med Chem, 2019).
pIC50: −log10 of the molar value. Blank lines part the entries; values can stand above or below the compound they belong to. Active and inactive are the calls of the source. The rule behind the calls is not given here.

How the values were obtained:
[1] = Permeability in human Caco2 cells at 10 uM incubated for 120 mins by LC-MS/MS analysis; type: ADME, cell-based; settings: caco-2, 2 h
[2] = molecular target: Tyrosine-protein kinase ABL1 (Homo sapiens) (UniProt P00519); assay: Binding affinity to human phosphorylated ABL1 (S229 to K512 residues) expressed in mammalian expression system assessed as residual binding level at 10 uM by Kinomescan method relative to control
[3] = molecular target: T1, von Hippel-Lindau disease tumor suppressor/Tyrosine-protein kinase ABL1/Breakpoint cluster region protein (Homo sapiens, UniProt P00519+P11274+P40337); assay: Induction of ternary complex formation between VHL and BCR-ABL (unknown origin) expressed in HEK293 cells expressing N-terminal BCR-ABL LgBit fusion protein and N-terminal SmBit-VHL fusion protein incubated for 1 hr by NanoBit technology based luciferase complementation assay; type: cell-based
Target sequence in this assay (P00519 whole entry, looked up, the tested form may be a part): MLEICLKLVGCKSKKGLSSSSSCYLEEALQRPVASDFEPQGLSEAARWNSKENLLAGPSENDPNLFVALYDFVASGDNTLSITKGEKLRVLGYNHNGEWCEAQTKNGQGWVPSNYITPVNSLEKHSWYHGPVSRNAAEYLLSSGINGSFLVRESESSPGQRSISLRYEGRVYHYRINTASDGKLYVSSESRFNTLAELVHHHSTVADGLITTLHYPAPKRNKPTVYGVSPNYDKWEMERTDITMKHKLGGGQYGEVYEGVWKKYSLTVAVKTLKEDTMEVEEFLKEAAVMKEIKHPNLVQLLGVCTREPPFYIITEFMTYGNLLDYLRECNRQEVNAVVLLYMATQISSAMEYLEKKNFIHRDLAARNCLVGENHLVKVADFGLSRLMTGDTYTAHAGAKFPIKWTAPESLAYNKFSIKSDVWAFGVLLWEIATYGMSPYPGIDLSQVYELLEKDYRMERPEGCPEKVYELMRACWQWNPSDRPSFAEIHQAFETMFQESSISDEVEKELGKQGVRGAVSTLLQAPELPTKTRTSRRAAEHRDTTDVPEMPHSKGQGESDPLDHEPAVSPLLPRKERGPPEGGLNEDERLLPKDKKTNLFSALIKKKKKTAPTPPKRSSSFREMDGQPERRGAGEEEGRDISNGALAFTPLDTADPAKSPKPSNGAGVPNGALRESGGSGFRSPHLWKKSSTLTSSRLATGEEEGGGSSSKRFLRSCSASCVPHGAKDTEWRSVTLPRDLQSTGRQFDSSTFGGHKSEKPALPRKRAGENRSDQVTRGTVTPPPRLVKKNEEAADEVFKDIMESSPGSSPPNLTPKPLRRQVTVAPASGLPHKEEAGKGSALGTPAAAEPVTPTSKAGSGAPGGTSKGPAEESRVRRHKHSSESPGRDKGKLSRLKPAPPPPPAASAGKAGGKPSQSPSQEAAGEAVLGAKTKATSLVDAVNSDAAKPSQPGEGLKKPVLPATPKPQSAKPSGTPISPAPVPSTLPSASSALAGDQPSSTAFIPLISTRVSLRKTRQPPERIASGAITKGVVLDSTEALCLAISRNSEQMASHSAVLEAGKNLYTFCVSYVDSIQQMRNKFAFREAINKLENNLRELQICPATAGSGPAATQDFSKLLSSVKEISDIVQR
Target sequence in this assay (P11274 whole entry, looked up, the tested form may be a part): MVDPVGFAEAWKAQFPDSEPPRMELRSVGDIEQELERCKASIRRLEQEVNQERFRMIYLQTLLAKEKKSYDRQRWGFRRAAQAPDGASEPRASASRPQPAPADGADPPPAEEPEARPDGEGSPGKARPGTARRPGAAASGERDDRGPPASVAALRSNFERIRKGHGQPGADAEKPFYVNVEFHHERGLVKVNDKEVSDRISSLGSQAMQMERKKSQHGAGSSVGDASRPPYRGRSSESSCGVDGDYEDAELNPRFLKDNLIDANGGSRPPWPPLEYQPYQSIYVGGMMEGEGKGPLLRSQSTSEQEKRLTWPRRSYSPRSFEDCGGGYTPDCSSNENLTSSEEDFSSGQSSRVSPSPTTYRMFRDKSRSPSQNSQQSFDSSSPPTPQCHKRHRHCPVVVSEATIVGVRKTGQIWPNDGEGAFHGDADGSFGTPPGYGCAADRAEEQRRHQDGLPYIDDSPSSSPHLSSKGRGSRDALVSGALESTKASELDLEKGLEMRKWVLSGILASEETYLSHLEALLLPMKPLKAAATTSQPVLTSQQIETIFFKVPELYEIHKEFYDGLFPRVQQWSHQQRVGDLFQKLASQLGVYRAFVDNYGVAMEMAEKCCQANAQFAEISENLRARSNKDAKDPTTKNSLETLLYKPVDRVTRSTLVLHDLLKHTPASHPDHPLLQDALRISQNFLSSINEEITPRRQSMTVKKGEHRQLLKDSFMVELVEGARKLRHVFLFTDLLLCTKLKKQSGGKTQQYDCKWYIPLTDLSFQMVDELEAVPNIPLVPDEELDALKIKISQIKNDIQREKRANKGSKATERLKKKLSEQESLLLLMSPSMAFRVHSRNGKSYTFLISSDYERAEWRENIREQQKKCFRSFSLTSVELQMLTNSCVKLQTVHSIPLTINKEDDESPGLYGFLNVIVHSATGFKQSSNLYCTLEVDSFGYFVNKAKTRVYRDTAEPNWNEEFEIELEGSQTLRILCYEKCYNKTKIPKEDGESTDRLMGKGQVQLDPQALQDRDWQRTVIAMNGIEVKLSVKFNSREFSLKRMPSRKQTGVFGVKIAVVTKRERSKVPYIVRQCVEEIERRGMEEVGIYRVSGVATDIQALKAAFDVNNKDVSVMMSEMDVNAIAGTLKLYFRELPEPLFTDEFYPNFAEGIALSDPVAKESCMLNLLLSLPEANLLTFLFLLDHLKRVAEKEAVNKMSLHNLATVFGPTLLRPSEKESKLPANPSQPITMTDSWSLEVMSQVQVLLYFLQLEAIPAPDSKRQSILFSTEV
Target sequence in this assay (P40337 whole entry, looked up, the tested form may be a part): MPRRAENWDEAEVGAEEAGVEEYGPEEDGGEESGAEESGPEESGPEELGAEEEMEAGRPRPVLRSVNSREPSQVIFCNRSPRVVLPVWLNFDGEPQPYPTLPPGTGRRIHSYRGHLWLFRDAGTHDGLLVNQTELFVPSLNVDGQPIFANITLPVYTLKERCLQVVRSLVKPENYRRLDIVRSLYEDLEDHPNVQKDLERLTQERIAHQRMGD

[4] = molecular target: Tyrosine-protein kinase ABL1 (Homo sapiens) (UniProt P00519); assay: Binding affinity to human non-phosphorylated ABL1 (S229 to K512 residues) expressed in mammalian expression system assessed as residual binding level at 10 uM by Kinomescan method relative to control
K562 [5] = assay: Growth inhibition of human K562 cells incubated for 2 days by CCK8 assay; type: functional, cell-based; settings: K562, 48 h
[6] = molecular target: T1, von Hippel-Lindau disease tumor suppressor/Tyrosine-protein kinase ABL1/Breakpoint cluster region protein; assay: Protac activity against VHL/BCR-ABL in human K562 cells assessed as induction of BCR-ABL degradation by Western blot analysis; type: cell-based
Target sequence in this assay (P00519 whole entry, the tested form may be a part): as the sequence (P00519 whole entry, looked up, the tested form may be a part) above
Target sequence in this assay (P11274 whole entry, the tested form may be a part): as the sequence (P11274 whole entry, looked up, the tested form may be a part) above
Target sequence in this assay (P40337 whole entry, the tested form may be a part): as the sequence (P40337 whole entry, looked up, the tested form may be a part) above

[7] = molecular target: T2, Bcr/Abl fusion protein (Homo sapiens) (UniProt P00519+P11274); assay: Inhibition of BCR-ABL phosphorylation in human K562 cells at 1 to 100 nM by Western blot analysis; type: cell-based
[8] = molecular target: T2, Bcr/Abl fusion protein (Homo sapiens); assay: Inhibition of BCR-ABL in human K562 cells assessed as reduction in STAT5 phosphorylation at 1 to 100 nM by Western blot analysis; type: cell-based
K562 [9] = assay: Growth inhibition of human K562 cells assessed as reduction in cell density at 20 times IC50 incubated for 12 hrs followed by drug wash-out and incubation in drug-free medium up to 144 hrs by CCK8 assay; type: functional, cell-based
[10] = molecular target: T1, von Hippel-Lindau disease tumor suppressor/Tyrosine-protein kinase ABL1/Breakpoint cluster region protein; assay: Induction of ternary complex formation between VHL and BCR-ABL (unknown origin) expressed in HEK293 cells expressing N-terminal BCR-ABL LgBit fusion protein and N-terminal SmBit-VHL fusion protein at 1 uM incubated for 1 hr by NanoBit technology based luciferase complementation assay; type: cell-based
Target sequence in this assay (P00519 whole entry, looked up, the tested form may be a part): as the sequence (P00519 whole entry, looked up, the tested form may be a part) above
Target sequence in this assay (P11274 whole entry, looked up, the tested form may be a part): as the sequence (P11274 whole entry, looked up, the tested form may be a part) above
Target sequence in this assay (P40337 whole entry, looked up, the tested form may be a part): as the sequence (P40337 whole entry, looked up, the tested form may be a part) above

Mus musculus = assay: Inhibition of BCR-ABL phosphorylation in NOD/SCID mouse xenografted with luciferse expressing human K562 cells at 5 to 15 mg/kg, ip QD for 4 days by Western blotting analysis; type: functional, organism-based
[11] = molecular target: T1, von Hippel-Lindau disease tumor suppressor/Tyrosine-protein kinase ABL1/Breakpoint cluster region protein; assay: Protac activity against VHL/BCR-ABL in NOD/SCID mouse xenografted with luciferse expressing human K562 cells assessed as induction of BCR-ABL degradation at 15 mg/kg, ip QD for 4 days by Western blotting analysis; type: functional, organism-based
Target sequence in this assay (P00519 whole entry, looked up, the tested form may be a part): as the sequence (P00519 whole entry, looked up, the tested form may be a part) above
Target sequence in this assay (P11274 whole entry, looked up, the tested form may be a part): as the sequence (P11274 whole entry, looked up, the tested form may be a part) above
Target sequence in this assay (P40337 whole entry, looked up, the tested form may be a part): as the sequence (P40337 whole entry, looked up, the tested form may be a part) above

K562 [12] = assay: Induction of cell death in human K562 cells assessed as reduction in cell viability at 20 times IC50 incubated for 12 hrs followed by drug wash-out and incubation in drug-free medium up to 144 hrs by CCK8 assay; type: functional, cell-based
[13] = molecular target: T1, von Hippel-Lindau disease tumor suppressor/Tyrosine-protein kinase ABL1/Breakpoint cluster region protein; assay: Protac activity against VHL/BCR-ABL in human K562 cells assessed as induction of BCR-ABL degradation at 1 to 100 nM by Western blot analysis; type: cell-based
Target sequence in this assay (P00519 whole entry, looked up, the tested form may be a part): as the sequence (P00519 whole entry, looked up, the tested form may be a part) above
Target sequence in this assay (P11274 whole entry, looked up, the tested form may be a part): as the sequence (P11274 whole entry, looked up, the tested form may be a part) above
Target sequence in this assay (P40337 whole entry, looked up, the tested form may be a part): as the sequence (P40337 whole entry, looked up, the tested form may be a part) above

K562 [14] = assay: Antitumor activity against luciferse expressing human K562 cells xenografted in NOD/SCID mouse assessed as attenuation of tumor progression at 5 to 15 mg/kg, ip QD for 12 days by serial volumetric analysis; type: functional, organism-based
K562 [15] = assay: Antitumor activity against luciferse expressing human K562 cells xenografted in NOD/SCID mouse assessed as attenuation of tumor progression at 5 mg/kg, ip QD for 12 days by serial volumetric analysis; type: functional, organism-based

Tyrosine-protein kinase ABL1 (Homo sapiens), sequence (P00519 whole entry, the tested form may be a part): as the sequence (P00519 whole entry, looked up, the tested form may be a part) above
T2 sequence (P00519 whole entry, looked up, the tested form may be a part): as above
T2 sequence (P11274 whole entry, looked up, the tested form may be a part): as the sequence (P11274 whole entry, looked up, the tested form may be a part) above

SMILES: Cc1nc(Nc2ncc(C(=O)Nc3c(C)cccc3Cl)s2)cc(N2CCN(C(=O)COCCOCCOCC(=O)N[C@H](C(=O)N3C[C@H](O)C[C@H]3C(=O)NCc3ccc(-c4scnc4C)cc3)C(C)(C)C)CC2)n1
permeability [1]: Permeable
Activity [2]: Active
Activity [3]: Active
Activity [4]: Active

SMILES: Cc1nc(Nc2ncc(C(=O)Nc3c(C)cccc3Cl)s2)cc(N2CCN(C(=O)CCCCNC(=O)CCCCCCCCC(=O)N[C@H](C(=O)N3C[C@H](O)C[C@H]3C(=O)NCc3ccc(-c4scnc4C)cc3)C(C)(C)C)CC2)n1
pIC50 (K562 [5]): 7.14

SMILES: Cc1nc(Nc2ncc(C(=O)Nc3c(C)cccc3Cl)s2)cc(N2CCN(C(=O)CCCCC(=O)N[C@H](C(=O)N3C[C@H](O)C[C@H]3C(=O)NCc3ccc(-c4scnc4C)cc3)C(C)(C)C)CC2)n1
pIC50 (K562 [5]): 7.05
DC50 [6]: 34.7 nM

SMILES: Cc1nc(Nc2ncc(C(=O)Nc3c(C)cccc3Cl)s2)cc(N2CCN(C(=O)CCCc3cn(CCCC(=O)N[C@H](C(=O)N4C[C@H](O)C[C@H]4C(=O)NCc4ccc(-c5scnc5C)cc4)C(C)(C)C)nn3)CC2)n1
pIC50 (K562 [5]): 7.92

SMILES: Cc1nc(Nc2ncc(C(=O)Nc3c(C)cccc3Cl)s2)cc(N2CCN(C(=O)CCOCCOCCOCCOCCC(=O)N[C@H](C(=O)N3C[C@H](O)C[C@H]3C(=O)NCc3ccc(-c4scnc4C)cc3)C(C)(C)C)CC2)n1
pIC50 (K562 [5]): 5.67

SMILES: Cc1nc(Nc2ncc(C(=O)Nc3c(C)cccc3Cl)s2)cc(N2CCN(C(=O)CCOCCOCCC(=O)N[C@H](C(=O)N3C[C@H](O)C[C@H]3C(=O)NCc3ccc(-c4scnc4C)cc3)C(C)(C)C)CC2)n1
pIC50 (K562 [5]): 6.17

SMILES: Cc1nc(Nc2ncc(C(=O)Nc3c(C)cccc3Cl)s2)cc(N2CCN(CCCCCNC(=O)CCCCCCCCC(=O)N[C@H](C(=O)N3C[C@H](O)C[C@H]3C(=O)NCc3ccc(-c4scnc4C)cc3)C(C)(C)C)CC2)n1
pIC50 (K562 [5]): 8.16

SMILES: Cc1nc(Nc2ncc(C(=O)Nc3c(C)cccc3Cl)s2)cc(N2CCN(C(=O)CCCCCCC(=O)N[C@H](C(=O)N3C[C@@H](O)C[C@H]3C(=O)NCc3ccc(-c4scnc4C)cc3)C(C)(C)C)CC2)n1
inhibition [7]: Active
inhibition [8]: Active
growth inhibition (GI) (K562 [9]): inactive
Activity [10]: inactive
inhibition (Mus musculus): Active
Activity [11]: inactive
Activity (K562 [12]): inactive
Activity [13]: inactive
Activity (K562 [14]): inactive

SMILES: Cc1nc(Nc2ncc(C(=O)Nc3c(C)cccc3Cl)s2)cc(N2CCN(C(=O)CCOCCOCCOCCC(=O)N[C@H](C(=O)N3C[C@H](O)C[C@H]3C(=O)NCc3ccc(-c4scnc4C)cc3)C(C)(C)C)CC2)n1
pIC50 (K562 [5]): 5.46

SMILES: Cc1nc(Nc2ncc(C(=O)Nc3c(C)cccc3Cl)s2)cc(N2CCN(C(=O)CCC(=O)N[C@H](C(=O)N3C[C@H](O)C[C@H]3C(=O)NCc3ccc(-c4scnc4C)cc3)C(C)(C)C)CC2)n1
pIC50 (K562 [5]): 7.11
DC50 [6]: 611 nM

SMILES: Cc1nc(Nc2ncc(C(=O)Nc3c(C)cccc3Cl)s2)cc(N2CCN(CCO)CC2)n1 [DASATINIB]
Activity (K562 [15]): Active
growth inhibition (GI) (K562 [9]): inactive
pIC50 (K562 [5]): 9.05
Activity (K562 [12]): inactive

SMILES: Cc1nc(Nc2ncc(C(=O)Nc3c(C)cccc3Cl)s2)cc(N2CCN(CCCCCCOCCOCCOCCCCCC(=O)N[C@H](C(=O)N3C[C@H](O)C[C@H]3C(=O)NCc3ccc(-c4scnc4C)cc3)C(C)(C)C)CC2)n1
pIC50 (K562 [5]): 8.47

SMILES: Cc1nc(Nc2ncc(C(=O)Nc3c(C)cccc3Cl)s2)cc(N2CCN(C(=O)CCCCCCCCC(=O)N[C@H](C(=O)N3C[C@H](O)C[C@H]3C(=O)NCc3ccc(-c4scnc4C)cc3)C(C)(C)C)CC2)n1
pIC50 (K562 [5]): 7.84
DC50 [6]: 10.1 nM

SMILES: Cc1nc(Nc2ncc(C(=O)Nc3c(C)cccc3Cl)s2)cc(N2CCN(C(=O)CCCCCCCCCCCCC(=O)N[C@H](C(=O)N3C[C@H](O)C[C@H]3C(=O)NCc3ccc(-c4scnc4C)cc3)C(C)(C)C)CC2)n1
pIC50 (K562 [5]): 7.84

Next, values leading:

pIC50 (K562 [5]): 7.65
DC50 [6]: 37.9 nM
SMILES: Cc1nc(Nc2ncc(C(=O)Nc3c(C)cccc3Cl)s2)cc(N2CCN(C(=O)CCCCCCCC(=O)N[C@H](C(=O)N3C[C@H](O)C[C@H]3C(=O)NCc3ccc(-c4scnc4C)cc3)C(C)(C)C)CC2)n1

pIC50 (K562 [5]): 7.17
SMILES: Cc1nc(Nc2ncc(C(=O)Nc3c(C)cccc3Cl)s2)cc(N2CCN(C(=O)CNC(=O)CCCC(=O)N[C@H](C(=O)N3C[C@H](O)C[C@H]3C(=O)NCc3ccc(-c4scnc4C)cc3)C(C)(C)C)CC2)n1

pIC50 (K562 [5]): 7.06
DC50 [6]: 40.2 nM
SMILES: Cc1nc(Nc2ncc(C(=O)Nc3c(C)cccc3Cl)s2)cc(N2CCN(C(=O)CCCC(=O)N[C@H](C(=O)N3C[C@H](O)C[C@H]3C(=O)NCc3ccc(-c4scnc4C)cc3)C(C)(C)C)CC2)n1

pIC50 (K562 [5]): 7.49
SMILES: Cc1nc(Nc2ncc(C(=O)Nc3c(C)cccc3Cl)s2)cc(N2CCN(C(=O)CCCCCCCCCCCCCCC(=O)N[C@H](C(=O)N3C[C@H](O)C[C@H]3C(=O)NCc3ccc(-c4scnc4C)cc3)C(C)(C)C)CC2)n1

pIC50 (K562 [5]): 7.83
SMILES: Cc1nc(Nc2ncc(C(=O)Nc3c(C)cccc3Cl)s2)cc(N2CCN(C(=O)CCCCCOCCOCCOCCCCCC(=O)N[C@H](C(=O)N3C[C@H](O)C[C@H]3C(=O)NCc3ccc(-c4scnc4C)cc3)C(C)(C)C)CC2)n1

pIC50 (K562 [5]): 7.42
DC50 [6]: 17.9 nM
SMILES: Cc1nc(Nc2ncc(C(=O)Nc3c(C)cccc3Cl)s2)cc(N2CCN(C(=O)CCCCCC(=O)N[C@H](C(=O)N3C[C@H](O)C[C@H]3C(=O)NCc3ccc(-c4scnc4C)cc3)C(C)(C)C)CC2)n1

pIC50 (K562 [5]): 5.79
SMILES: Cc1nc(Nc2ncc(C(=O)Nc3c(C)cccc3Cl)s2)cc(N2CCN(C(=O)CCOCCOCCOCCOCCOCCC(=O)N[C@H](C(=O)N3C[C@H](O)C[C@H]3C(=O)NCc3ccc(-c4scnc4C)cc3)C(C)(C)C)CC2)n1

pIC50 (K562 [5]): 5.65
SMILES: Cc1nc(Nc2ncc(C(=O)Nc3c(C)cccc3Cl)s2)cc(N2CCN(C(=O)COCCOCC(=O)N[C@H](C(=O)N3C[C@H](O)C[C@H]3C(=O)NCc3ccc(-c4scnc4C)cc3)C(C)(C)C)CC2)n1
